Data: PMC12892976, “Alkylation-based optimization of antifungal FPPS inhibitors yields a potent, broad-spectrum lipophilic zoledronate derivative” (mBio, 2025)
≈ marks a conversion by molar mass, not a printed value. Read-outs that look alike come from different tables or passages of the source.

What was measured:
Saccharomyces cerevisiae [1] = assay: MIC/MFC broth microdilution (CLSI); type: cell-based; conditions: Saccharomyces cerevisiae S288c
Procedure: (§1) Antifungal susceptibility was determined by broth microdilution according to the CLSI guidelines described in M27-Ed4 ([16]). […] MFC was determined by back-plating drug-treated cultures from MIC broths onto SDA plates. The MFC was defined as the lowest concentration from which no colonies could be cultured.

Candida albicans [2] = assay: MIC/MFC broth microdilution (CLSI); type: cell-based; conditions: Candida albicans SC5314
Procedure: as §1

[3] = test system: Cryptococcus deuterogattii; assay: checkerboard drug interaction (FICI, MICc);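 for all read-outs here: simplified diagonal checkerboard screen pairing antifungal drugs with FPPS inhibitors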; type: cell-based; conditions: C. deuterogattii; for INH FD (MIC-MICc fold decrease): fold decrease of inhibitor MIC
Procedure: (§2) Drug interactions between antifungals and FPPS inhibitors were investigated using a simplified checkerboard diagonal screening method ([45]). […] FICIs were determined according to the Loewe additivity model ([17]).

Cryptococcus neoformans [4] = assay: checkerboard drug interaction (FICI, MICc);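 for all read-outs here: antifungal plus FPPS inhibitor pairs tested against Cryptococcus neoformans by simplified diagonal checkerboard screening, FICI computed under the Loewe additivity model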; type: cell-based; conditions: C. neoformans; for INH FD (MIC-MICc fold decrease): fold decrease of inhibitor MIC
Procedure: as §2

Saccharomyces cerevisiae [5] = assay: checkerboard drug interaction (FICI, MICc); type: cell-based; set-up: INH MICc / INH MICc (ITR:INH) / INH MICc (KET:INH) / INH MICc (FLC:INH): unit not given beside the values;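 note: simplified diagonal checkerboard screen pairing antifungals with FPPS inhibitors, FICI calculated under the Loewe additivity model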
Candida glabrata [6] = assay: checkerboard drug interaction (FICI, MICc);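 for all read-outs here: simplified diagonal checkerboard screen pairing antifungals with FPPS inhibitors, FICI calculated under the Loewe additivity model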; type: cell-based; conditions: C. glabrata; for INH FD (MIC-MICc fold decrease): fold decrease of inhibitor MIC
Procedure: as §2

Candida albicans [7] = assay: checkerboard drug interaction (FICI, MICc);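 for all read-outs here: antifungal plus FPPS inhibitor combinations on Candida albicans tested by a simplified diagonal checkerboard screen, with FICI calculated under the Loewe additivity model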; type: cell-based; conditions: C. albicans; for INH FD (MIC-MICc fold decrease): fold decrease of inhibitor MIC
Procedure: as §2

Aspergillus flavus [8] = assay: checkerboard drug interaction (FICI, MICc);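 note: simplified diagonal checkerboard screen pairing azole antifungals with FPPS inhibitors, FICI calculated under the Loewe additivity model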; type: cell-based; set-up: INH MICc (KET:INH) / INH MICc (FLC:INH): unit not given beside the values; conditions: A. flavus
Aspergillus fumigatus [9] = assay: checkerboard drug interaction (FICI, MICc); type: cell-based;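 note: simplified diagonal checkerboard screen pairing antifungals with FPPS inhibitors against Aspergillus fumigatus, with FICI calculated under the Loewe additivity model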
Procedure: as §2

Trichophyton rubrum [10] = assay: checkerboard drug interaction (FICI, MICc);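 note: simplified diagonal checkerboard screen pairing azole antifungals with FPPS inhibitors, FICI calculated under the Loewe additivity model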; type: cell-based; conditions: T. rubrum
Procedure: as §2

HEK-293T cells = assay: MTT reduction cytotoxicity assay; type: cell-based; conditions: Homo sapiens, HEK-293T, 72 h, MTT, 72 h
eight fungal species [11] = assay: MIC/MFC summary across the eight fungal species of Table 1; type: cell-based
Procedure: The antifungal activity of these compounds was evaluated according to CLSI guidelines ([16]).

eight fungal species [12] = assay: checkerboard interaction with azoles, summary across the eight species; type: cell-based; conditions: geometric mean MIC in combination with azoles
Text: Synergy between lipophilic FPPS inhibitors and azole antifungals was investigated by determining the fractional inhibitory concentration index (FICI) (Fig. 2; Table S1 Fig. S1) ([17]). […]. Derivatives PLA9 and 11, and PDA9, 11, and 12 antagonized azoles in C. albicans, C. neoformans, and C. deuterogattii, yet were largely synergistic in C. glabrata and S. cerevisiae. […].

[13] = test system: Cryptococcus deuterogattii; assay: MIC/MFC broth microdilution (CLSI); conditions: Cryptococcus deuterogattii;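 note: broth microdilution per CLSI M27-Ed4. MFC is the lowest concentration yielding no colonies when MIC broths are subcultured onto SDA plates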
Procedure: as §1

Cryptococcus neoformans [14] = assay: MIC/MFC broth microdilution (CLSI); conditions: Cryptococcus neoformans;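 note: susceptibility testing followed the CLSI M27-Ed4 broth microdilution document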
Procedure: as §1

Candida glabrata [15] = assay: MIC/MFC broth microdilution (CLSI); conditions: Nakaseomyces glabratus, CBS138;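 note: broth microdilution following CLSI M27-Ed4, MFC taken as the lowest drug level yielding no growth once MIC wells were subcultured on SDA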
Procedure: as §1

Aspergillus flavus [16] = assay: MIC/MFC broth microdilution (CLSI); conditions: ATCC204304
Procedure: as §1

Aspergillus fumigatus [17] = assay: MIC/MFC broth microdilution (CLSI); conditions: ATCC204305
Procedure: as §1

Trichophyton rubrum [18] = assay: MIC/MFC broth microdilution (CLSI); conditions: Trichophyton rubrum
Procedure: as §1

[19] = FLC:INH combination, MIC of the inhibitor in combination with FLC
[20] = FLC:INH combination, fold decrease of FLC MIC
[21] = ITR:INH combination, MIC of the inhibitor in combination with ITR
[22] = ITR:INH combination, fold decrease of ITR MIC
[23] = KET:INH combination, MIC of the inhibitor in combination with KET
[24] = KET:INH combination, fold decrease of KET MIC
[25] = Fractional Inhibitory Concentration Index, fluconazole + inhibitor
[26] = Fractional Inhibitory Concentration Index, itraconazole + inhibitor
[27] = Fractional Inhibitory Concentration Index, ketoconazole + inhibitor
[28] = MIC of the inhibitor in combination with fluconazole
[29] = MIC of the inhibitor in combination with itraconazole
[30] = MIC of the inhibitor in combination with ketoconazole
[31] = MIC-MICc fold decrease of fluconazole, negative = increase
[32] = MIC-MICc fold decrease of itraconazole, negative = increase
[33] = MIC-MICc fold decrease of ketoconazole, negative = increase
[34] = MIC-MICc fold decrease of the inhibitor, with fluconazole
[35] = MIC-MICc fold decrease of the inhibitor, with itraconazole
[36] = MIC-MICc fold decrease of the inhibitor, with ketoconazole

Question: Which results are given for CCCCCCCCCCCCN1CCC[C@H]1C(=O)N[C@@H](CC(=O)OC)C(=O)OC [dmPLA12]?
Answer: MFC (Saccharomyces cerevisiae [1]): 4 µg/mL (≈ 9.38 µM); MIC (Saccharomyces cerevisiae [1]): 4 µg/mL (≈ 9.38 µM); MFC (Candida albicans [2]): > 128 µg/mL; MIC (Candida albicans [2]): > 128 µg/mL; FICI ([3]; FLC:INH combination): 0.38; INH MICc [3, 19]: 16; FLC FD (MIC-MICc fold decrease) [3, 20]: 4; INH FD (MIC-MICc fold decrease) ([3]; FLC:INH combination): 8; FICI ([3]; ITR:INH combination): 0.63; INH MICc [3, 21]: 16; ITR FD (MIC-MICc fold decrease) [3, 22]: 2; INH FD (MIC-MICc fold decrease) ([3]; ITR:INH combination): 8; FICI ([3]; KET:INH combination): 0.19; INH MICc [3, 23]: 16; KET FD (MIC-MICc fold decrease) [3, 24]: 16; INH FD (MIC-MICc fold decrease) ([3]; KET:INH combination): 8; FICI (Cryptococcus neoformans [4]; FLC:INH combination): 3; INH MICc (Cryptococcus neoformans [4]; [19]): 32; FLC FD (MIC-MICc fold decrease) (Cryptococcus neoformans [4]; [20]): 1; INH FD (MIC-MICc fold decrease) (Cryptococcus neoformans [4]; FLC:INH combination): -2; FICI (Cryptococcus neoformans [4]; ITR:INH combination): 1.5; INH MICc (Cryptococcus neoformans [4]; [21]): 16; ITR FD (MIC-MICc fold decrease) (Cryptococcus neoformans [4]; [22]): 2; INH FD (MIC-MICc fold decrease) (Cryptococcus neoformans [4]; ITR:INH combination): 1; FICI (Cryptococcus neoformans [4]; KET:INH combination): 0.75; INH MICc (Cryptococcus neoformans [4]; [23]): 8; KET FD (MIC-MICc fold decrease) (Cryptococcus neoformans [4]; [24]): 4; INH FD (MIC-MICc fold decrease) (Cryptococcus neoformans [4]; KET:INH combination): 2; FICI (FLC:INH) (Saccharomyces cerevisiae [5]; [25]): 0.75; FICI (ITR:INH) (Saccharomyces cerevisiae [5]; [26]): 0.75; FICI (KET:INH) (Saccharomyces cerevisiae [5]; [27]): 0.38; INH MICc (FLC:INH) (Saccharomyces cerevisiae [5]; [28]): 2; INH MICc (ITR:INH) (Saccharomyces cerevisiae [5]; [29]): 1; INH MICc (KET:INH) (Saccharomyces cerevisiae [5]; [30]): 1; FLC FD (FLC:INH) (Saccharomyces cerevisiae [5]; [31]): 4; ITR FD (ITR:INH) (Saccharomyces cerevisiae [5]; [32]): 2; KET FD (KET:INH) (Saccharomyces cerevisiae [5]; [33]): 8; INH FD (FLC:INH) (Saccharomyces cerevisiae [5]; [34]): 2; INH FD (ITR:INH) (Saccharomyces cerevisiae [5]; [35]): 4; INH FD (KET:INH) (Saccharomyces cerevisiae [5]; [36]): 4; FICI (Candida glabrata [6]; FLC:INH combination): 1; INH MICc (Candida glabrata [6]; [19]): 8; FLC FD (MIC-MICc fold decrease) (Candida glabrata [6]; [20]): 2; INH FD (MIC-MICc fold decrease) (Candida glabrata [6]; FLC:INH combination): 2; FICI (Candida glabrata [6]; ITR:INH combination): 0.38; INH MICc (Candida glabrata [6]; [21]): 2; ITR FD (MIC-MICc fold decrease) (Candida glabrata [6]; [22]): 4; INH FD (MIC-MICc fold decrease) (Candida glabrata [6]; ITR:INH combination): 8; FICI (Candida glabrata [6]; KET:INH combination): 0.75; INH MICc (Candida glabrata [6]; [23]): 4; KET FD (MIC-MICc fold decrease) (Candida glabrata [6]; [24]): 2; INH FD (MIC-MICc fold decrease) (Candida glabrata [6]; KET:INH combination): 4; FICI (Candida albicans [7]; FLC:INH combination): 1.06; INH MICc (Candida albicans [7]; [19]): 8; FLC FD (MIC-MICc fold decrease) (Candida albicans [7]; [20]): 1; INH FD (MIC-MICc fold decrease) (Candida albicans [7]; FLC:INH combination): 16; FICI (Candida albicans [7]; ITR:INH combination): ≥4; INH MICc (Candida albicans [7]; [21]): 32; ITR FD (MIC-MICc fold decrease) (Candida albicans [7]; [22]): -4; INH FD (MIC-MICc fold decrease) (Candida albicans [7]; ITR:INH combination): 4; FICI (Candida albicans [7]; KET:INH combination): 2.13; INH MICc (Candida albicans [7]; [23]): 16; KET FD (MIC-MICc fold decrease) (Candida albicans [7]; [24]): -2; INH FD (MIC-MICc fold decrease) (Candida albicans [7]; KET:INH combination): 8; FICI (FLC:INH) (Aspergillus flavus [8]; [25]): 1.5; FICI (ITR:INH) (Aspergillus flavus [8]; [26]): 0.5; FICI (KET:INH) (Aspergillus flavus [8]; [27]): 0.52; INH MICc (FLC:INH) (Aspergillus flavus [8]; [28]): 128; INH MICc (ITR:INH) (Aspergillus flavus [8]; [29]): 64; INH MICc (KET:INH) (Aspergillus flavus [8]; [30]): 4; FLC FD (FLC:INH) (Aspergillus flavus [8]; [31]): 1; ITR FD (ITR:INH) (Aspergillus flavus [8]; [32]): 4; KET FD (KET:INH) (Aspergillus flavus [8]; [33]): 2; INH FD (FLC:INH) (Aspergillus flavus [8]; [34]): 2; INH FD (ITR:INH) (Aspergillus flavus [8]; [35]): 4; INH FD (KET:INH) (Aspergillus flavus [8]; [36]): 64; FICI (FLC:INH) (Aspergillus fumigatus [9]; [25]): 1.5; FICI (ITR:INH) (Aspergillus fumigatus [9]; [26]): 0.52; FICI (KET:INH) (Aspergillus fumigatus [9]; [27]): 1; INH MICc (FLC:INH) (Aspergillus fumigatus [9]; [28]): 128; INH MICc (ITR:INH) (Aspergillus fumigatus [9]; [29]): 2; INH MICc (KET:INH) (Aspergillus fumigatus [9]; [30]): 64; FLC FD (FLC:INH) (Aspergillus fumigatus [9]; [31]): 2; ITR FD (ITR:INH) (Aspergillus fumigatus [9]; [32]): 2; KET FD (KET:INH) (Aspergillus fumigatus [9]; [33]): 2; INH FD (FLC:INH) (Aspergillus fumigatus [9]; [34]): 1; INH FD (ITR:INH) (Aspergillus fumigatus [9]; [35]): 64; INH FD (KET:INH) (Aspergillus fumigatus [9]; [36]): 2; FICI (FLC:INH) (Trichophyton rubrum [10]; [25]): 1.13; FICI (ITR:INH) (Trichophyton rubrum [10]; [26]): 1.06; FICI (KET:INH) (Trichophyton rubrum [10]; [27]): 1.13; INH MICc (FLC:INH) (Trichophyton rubrum [10]; [28]): 16; INH MICc (ITR:INH) (Trichophyton rubrum [10]; [29]): 16; INH MICc (KET:INH) (Trichophyton rubrum [10]; [30]): 16; FLC FD (FLC:INH) (Trichophyton rubrum [10]; [31]): 8; ITR FD (ITR:INH) (Trichophyton rubrum [10]; [32]): 16; KET FD (KET:INH) (Trichophyton rubrum [10]; [33]): 8; INH FD (FLC:INH) (Trichophyton rubrum [10]; [34]): 1; INH FD (ITR:INH) (Trichophyton rubrum [10]; [35]): 1; INH FD (KET:INH) (Trichophyton rubrum [10]; [36]): 1; IC50 (HEK-293T cells; HEK-293T cells, read-out: IC50): 2.01 µg/mL (≈ 4.72 µM); IC50 (HEK-293T cells; read-out: HEK IC50): 2.01 µg/mL (≈ 4.72 µM); MFC (eight fungal species [11]; across eight species, read-out: Geometric mean MFC): 69.8 µg/mL (≈ 164 µM); MIC (eight fungal species [11]; geometric mean across eight species, read-out: GM fungal MIC): 38.1 µg/mL (≈ 89.3 µM); MIC (eight fungal species [11]; read-out: Geometric mean MIC): 38.1 µg/mL (≈ 89.3 µM); GM fungal MICc (eight fungal species [12]): 11.3; MFC [13]: 8 µg/mL (≈ 18.8 µM); MIC [13]: 8 µg/mL (≈ 18.8 µM); MFC (Cryptococcus neoformans [14]): 16 µg/mL (≈ 37.5 µM); MIC (Cryptococcus neoformans [14]): 16 µg/mL (≈ 37.5 µM); MFC (Candida glabrata [15]): > 128 µg/mL; MIC (Candida glabrata [15]): > 128 µg/mL; MFC (Aspergillus flavus [16]): > 128 µg/mL; MIC (Aspergillus flavus [16]): > 128 µg/mL; MFC (Aspergillus fumigatus [17]): > 128 µg/mL; MIC (Aspergillus fumigatus [17]): 32 µg/mL (≈ 75 µM); MFC (Trichophyton rubrum [18]): > 128 µg/mL; MIC (Trichophyton rubrum [18]): 16 µg/mL (≈ 37.5 µM)
